Experimental findings from PubChem BioAssay (NCI) are described below.

Some test systems named below: SF-539 CNS; EKVX NSCLC; RXF 393 renal; HCC-2998 colon; OVCAR-8 ovarian; HL-60(TB) leukemia; DU-145 prostate; OVCAR-4 ovarian; UO-31 renal; TK-10 renal.
Assay in all cases: NCI tumour cell line growth inhibition, 48 h

Molecules are shown by their SMILES. Several values for one entry are separate records, joined by “and”; a condition that tells them apart may be missing. Identical values can stand only once.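 The compound was tested at five concentrations on cells cultured in 96-well plates, with a 48-hour exposure period. Abbreviation: GI50, concentration required for 50% inhibition of growth. TGI marks complete inhibition of growth.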 Where only a bound is given, the exact number is not on record here.

Consider `CCSCC1CC(O)(c2ccccc2)C(c2ccccc2)C(c2ccc(Cl)cc2)O1` (stereo not given), for which the GI50 in the assay with SF-539 CNS was 1.76 µM; in the assay on EKVX NSCLC it was 1.38 µM; in the assay with RXF 393 renal, 0.688 µM; in the assay on HCC-2998 colon, 1.82 µM; in the assay on OVCAR-8 ovarian, 2.27 µM; in the assay on HL-60(TB) leukemia, 4.08 µM. The GI50 with DU-145 prostate is 1.99 µM; in the assay on OVCAR-4 ovarian it was 1.66 µM; in the assay on UO-31 renal, 1.07 µM; in the assay on TK-10 renal, 2.27 µM. In addition, the TGI in the assay with SF-539 CNS was found to be 3.56 µM; in the assay with EKVX NSCLC, 4.29 µM; with RXF 393 renal it was 2.06 µM; with HCC-2998 colon, 3.58 µM; with OVCAR-8 ovarian it was 5.37 µM; in the assay on HL-60(TB) leukemia, 8.28 µM. Further, the TGI in the assay on DU-145 prostate came out at 4.4 µM; with OVCAR-4 ovarian, 4.35 µM; in the assay on UO-31 renal it was 2.43 µM; in the assay on TK-10 renal it was 5.4 µM.

Turning to `CC[C@]12CCCN3CCc4c(n(c5ccccc45)C(=O)C1)[C@@H]32`, the TGI is over 51.9 µM in the assay on SF-539 CNS; over 100 µM with EKVX NSCLC; 63.7 µM with RXF 393 renal; 19.4 µM in the assay on HCC-2998 colon; over 100 µM in the assay with OVCAR-8 ovarian; 8.51 µM in the assay on HL-60(TB) leukemia. For the same compound, the TGI is over 92.7 µM in the assay on DU-145 prostate, over 76.3 µM in the assay with OVCAR-4 ovarian, over 100 µM with UO-31 renal and over 90 µM with TK-10 renal.

Turning to `CCN1CCN(Cc2ccc(-c3cc4c(N[C@H](C)c5ccccc5)ncnc4[nH]3)cc2)CC1`, the GI50 was 2.07 µM and 1.9 µM in the assay on SF-539 CNS; 0.308 µM in the assay on EKVX NSCLC; 1.17 µM and 0.665 µM with RXF 393 renal; 7.63 µM and > 10 µM with HCC-2998 colon; 3.5 µM and 8.1 µM with OVCAR-8 ovarian; 2.83 µM and 4 µM in the assay with HL-60(TB) leukemia. In addition, the GI50 in the assay with DU-145 prostate was 1.78 µM and 2.38 µM; in the assay with OVCAR-4 ovarian it was 4.71 µM and > 10 µM; in the assay with UO-31 renal it was 0.37 µM and 0.542 µM; in the assay on TK-10 renal, 0.111 µM and 0.183 µM. For the same compound, the TGI in the assay on SF-539 CNS is 5.67 µM and 5.14 µM; in the assay on EKVX NSCLC, over 10 µM; in the assay with RXF 393 renal it was 4.27 µM and 3.82 µM; with HCC-2998 colon, 22.3 µM and > 10 µM; with OVCAR-8 ovarian, 33 µM and > 10 µM; in the assay on HL-60(TB) leukemia it was 7.91 µM and > 10 µM. Moreover, the TGI with DU-145 prostate is 19.9 µM and > 10 µM; in the assay with OVCAR-4 ovarian, 23 µM and > 10 µM; in the assay on UO-31 renal, 8.95 µM and > 10 µM; in the assay with TK-10 renal, 4.43 µM and > 10 µM.

With `CCCCON(OC(=O)c1ccccc1)C(=O)c1ccccc1`, the GI50 with SF-539 CNS is over 100 µM; in the assay with EKVX NSCLC, over 100 µM; with RXF 393 renal it was over 100 µM; with HCC-2998 colon, over 100 µM; in the assay on OVCAR-8 ovarian, over 100 µM; with HL-60(TB) leukemia it was 88.7 µM. The GI50 in the assay on DU-145 prostate, with OVCAR-4 ovarian, with UO-31 renal and in the assay with TK-10 renal was over 100 µM each time. The TGI in the assay on SF-539 CNS, with EKVX NSCLC, in the assay with RXF 393 renal, in the assay on HCC-2998 colon, with OVCAR-8 ovarian and in the assay on HL-60(TB) leukemia was over 100 µM in each case. The TGI in the assay on DU-145 prostate, in the assay with OVCAR-4 ovarian, in the assay with UO-31 renal and in the assay with TK-10 renal was over 100 µM in each case.

In the case of `O=C1c2ccccc2-c2c1c1ccccc1c(=O)n2CCCCNCCCn1c2c(c3ccccc3c1=O)C(=O)c1ccccc1-2`, the GI50 is 0.492 µM in the assay on SF-539 CNS; 0.782 µM in the assay with EKVX NSCLC; 0.33 µM with RXF 393 renal; 0.698 µM in the assay with HCC-2998 colon; 0.256 µM in the assay on OVCAR-8 ovarian; 8.19 µM in the assay on HL-60(TB) leukemia. Also, the GI50 with DU-145 prostate was 0.379 µM; in the assay on OVCAR-4 ovarian, 0.683 µM; in the assay on UO-31 renal, 0.0557 µM; in the assay on TK-10 renal it was 0.887 µM. The TGI amounted to 2.07 µM in the assay on SF-539 CNS; 1.75 µM with EKVX NSCLC; 7.08 µM in the assay on RXF 393 renal; 1.4 µM in the assay with HCC-2998 colon; 1.5 µM in the assay on OVCAR-8 ovarian; 23.3 µM in the assay on HL-60(TB) leukemia. Further, the TGI was 1.12 µM with DU-145 prostate, 15.5 µM in the assay on OVCAR-4 ovarian, 7.23 µM in the assay on UO-31 renal and 4.32 µM in the assay with TK-10 renal.

For the compound `COc1cc(C(=O)/C=C/c2c(C)n([O-])c3ccc(C)cc3[n+]2=O)cc(OC)c1OC`, the GI50 in the assay on SF-539 CNS is 2.84 µM; with EKVX NSCLC, 19.4 µM; in the assay on RXF 393 renal, 1.89 µM; in the assay on HCC-2998 colon it was 17 µM; in the assay with OVCAR-8 ovarian, 3.46 µM; in the assay on HL-60(TB) leukemia it was 2.32 µM. Besides, the GI50 was 7.88 µM in the assay with DU-145 prostate, 6.68 µM with OVCAR-4 ovarian, 4.63 µM with UO-31 renal and 3.77 µM in the assay on TK-10 renal. Also, the TGI is 7.12 µM in the assay with SF-539 CNS; over 100 µM in the assay with EKVX NSCLC; 3.91 µM in the assay on RXF 393 renal; 31 µM in the assay on HCC-2998 colon; over 56.4 µM in the assay on OVCAR-8 ovarian; 6.15 µM with HL-60(TB) leukemia. The TGI was 21.1 µM in the assay on DU-145 prostate, 24 µM with OVCAR-4 ovarian, 10.1 µM with UO-31 renal and over 34.6 µM with TK-10 renal.
